The test system of this assay is hind leg scratching behaviour induced by 5-methoxytryptamine hydrochloride. In words: Inhibition of hind leg scratching behaviour induced in rats by a pruritogenic agent. It counts as in vivo, Male Wistar rats. The note with it: rat, pruritogen 5-methoxytryptamine hydrochloride 4 mg/3 mL/kg s.c.; test compound s.c. in aqueous micelle formulation; scratching score over 25 minutes. The protocol:
The compounds of the invention are evaluated for their activity as antipruritic agents by measuring their ability to inhibit the hind leg scratching behaviour induced in rats by the administration of a known pruritogenic agent. These studies are based on the procedure described by Berendsen and Broekkamp in the European Journal of Pharmacology, 1991, 194, 201. The test is performed as follows: • Male Wistar rats (approximately 150 g body weight) are challenged with a pruritogen by subcutaneous injection of 5-methoxytryptamine hydrochloride (4 mg/3 mL/kg) dissolved in physiological saline into the scruff of the neck. At this dose a constant and quantifiable hindleg scratching response lasting up to 90 minutes is obtained. • The test compound is administered to the test animals by subcutaneous injection in an aqueous micelle formulation. The test compound is prepared in the following manner. […] The compounds can be administered pre- or post-challenge or may be administered at the same time as the pruritogenic challenge. • After the pruritogen challenge has been administered, hindleg scratching is scored for each animal by recording the presence or absence of scratching during each 30 second interval as 1 or 0 scored respectively. […]

`CCCCCCN1CC[C@@](C)(c2cccc(OC(=O)NC)c2)[C@H](C)C1` (racemic) [Example 2, (±)-3-(1-Hexyl-trans-3,4-dimethyl-4-piperidinyl)phenyl methylcarbamate]: the anti-pruritic activity result is “found to display anti-pruritic activity”.

These data come from patent US7012083B2, “Compounds useful in therapy” (Pfizer Inc., priority 1999, dated 2006).
